The values that follow are results of earlier work, collected in patent US20250262166A1, “NANOPARTICLES COMPRISING ENZALUTAMIDE” (priority 2019, published 2025).

Structures are written as SMILES.

Regarding `CNC(=O)c1ccc(N2C(=S)N(c3ccc(C#N)c(C(F)(F)F)c3)C(=O)C2(C)C)cc1F` [Enzalutamide], the solubility in water result is “insoluble in water”.
